Measured values published in patent US7247736B2, “Method of identifying inhibitors of DHODH” (4SC AG, priority 2002, dated 2007).
Entries after “also recorded” stand apart in the source; their conditions may differ.

Target: T1, human DHODH(Met30-Arg396) (Homo sapiens, UniProt Q02127)
T1 construct: N-terminally truncated human DHODH(Met30-Arg396); made in house; host or cells: E. coli BL21(DE3)Gold, pET-19b
Assay: X-ray co-crystal structure, inhibitor binding mode
Details: for binding mode in crystal structure: carboxylic acid group, subsite 2 vs subsite 3; for enantiomer bound in refined structure: racemic mixture used for crystallization
Protocol: The hanging drops were incubated against 0.5 mL reservoir of 0.1 M acetate pH 4.8, 2.4-2.6 M ammonium sulfate and 30% glycerol. The crystallization conditions were screened by variation of pH versus ammonium sulfate concentration using a small grid screen (see FIG. 2):
The racemic mixtures were used for crystallization experiments.
Crystals were harvested with pre-mounted loops of size 0.5 mm (Hampton Research) and were flash frozen directly in the cryo stream of the measurement device.
Data were collected at the beamline BW6 at the DESY Hamburg on a MAR-CCD camera. […] The crystals were maintained at a temperature of 100 K during data collection.
[…] At this stage 5% or 10% (the “test set”) of unique reflections were flagged for cross validation to calculate the free R-factor (Rfree) during the refinement process.
(§1) The free accessible pdb entry 1D3G.pdb was used as a search model. The ligands brequinar and DDQ as well as all of the water molecules were removed prior to the MR search. The search model included the polypeptide chain of hDHODH(Met30-Arg396), one molecule of orotate, one molecule of the cofactor flavinmononucleotide (FMN) and one acetate molecule which was present under the crystallization conditions.
(§2) In a first round of refinement the MR model was subjected to rigid body refinement and a slow cooling simulated annealing protocol using a maximum likelihood target to remove model bias (Accelrys Inc. CNX program suite, CNX2002). Additionally, an individual b-factor refinement was carried out using standard CNX protocols.
After energy minimization the compound was built into the electron density manually. […] After an additional round of model building and water picking using CNX another complete round of refinement was performed.
as §1
as §2, with “CNX-protocols.” for “CNX protocols.”
Both compounds were energy minimized and built into the electron density manually. […] After an additional round of model building and water picking using CNX, another complete round of refinement was performed.

T1 sequence (Q02127 29-395): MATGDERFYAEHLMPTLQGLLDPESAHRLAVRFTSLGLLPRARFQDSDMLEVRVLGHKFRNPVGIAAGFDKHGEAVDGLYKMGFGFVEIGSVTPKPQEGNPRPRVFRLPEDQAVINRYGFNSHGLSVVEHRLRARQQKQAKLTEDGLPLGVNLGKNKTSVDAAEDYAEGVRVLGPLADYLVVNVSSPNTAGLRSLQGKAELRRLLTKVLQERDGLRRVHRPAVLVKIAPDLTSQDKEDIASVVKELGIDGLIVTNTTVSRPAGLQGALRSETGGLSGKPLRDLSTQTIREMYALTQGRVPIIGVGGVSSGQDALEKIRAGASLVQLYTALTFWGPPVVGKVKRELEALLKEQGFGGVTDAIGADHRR

| Compound | binding mode in crystal structure | enantiomer bound in refined structure |
| --- | --- | --- |
| COc1cccc(-c2ccc(NC(=O)C3=C(C(=O)O)CCC3)c(F)c2)c1 [Compound 1] | non-brequinar-like | – |
| O=C(O)C1=C(C(=O)Nc2c(F)cc(-c3cccc(OC(F)(F)F)c3)cc2F)CCC1 [Compound 2] | both a brequinar-like and a non-brequinar-like binding mode; also recorded: both the brequinar-like and non-brequinar-like binding mode | – |
| O=C(O)C1=C(C(=O)Nc2c(F)c(F)c(-c3cccc(OC(F)(F)F)c3)c(F)c2F)CCC1 [Compound 3] | both the brequinar-like and non-brequinar-like binding mode | – |
| O=C(O)C1=C(C(=O)Nc2ccc(-c3cccc(OC(F)(F)F)c3)cc2F)CCC1 [Compound 4] | non-brequinar-like | – |
| O=C(Nc1ccc(-c2cccc(OC(F)(F)F)c2)cc1F)C1=CCCC1C(=O)O (stereo not drawn) [Compound 5] | non-brequinar-like | R-form |
| COc1cccc(-c2ccc(NC(=O)C3CCCC3C(=O)O)c(F)c2)c1 (stereo not drawn) [Compound 6] | both a brequinar-like and a non-brequinar-like binding mode | R-form |
| COc1cccc(-c2ccc(NC(=O)C3=C(C(=O)O)CCC3O)c(F)c2)c1 (stereo not drawn) [Compound 7] | non-brequinar-like | – |
| COc1cccc(-c2ccc(NC(=O)C3=C(C(=O)O)C(O)CC3)c(F)c2)c1 (stereo not drawn) [Compound 8] | non-brequinar-like | – |
| O=C(Nc1c(F)cc(-c2cccc(OC(F)(F)F)c2)cc1F)c1ccsc1C(=O)O [Compound 9] | pure brequinar-like binding mode | – |
| COc1cccc(-c2ccc(NC(=O)c3ccsc3C(=O)O)c(F)c2)c1 [Compound 10] | both a brequinar-like and a non-brequinar-like binding mode; also recorded: both alternatives | – |
